Assay results published in US12478617B2, “Lipidated peptide inhibitors of interleukin-23 receptor” (JANSSEN BIOTECH, INC., priority 2021, dated 2025).
Starred links: 1 amine or outer side, 2 acyl side, 3 side chain; linkers in the order of their positions; H or OH if unused. Positions of bridges follow the written chain, without caps; N, C: chain ends. Non-standard residues stand in square brackets, D forms with d. Residues, ends and D or L forms follow the SMILES beside them. Groups on a side chain read outwards from the residue. *: point of attachment. Decanoyl(10-O(3-COOH-Ph)) = O=C(O)c1cccc(OCCCCCCCCCC(=O)*)c1; Trp(7-Me) = Cc1cccc2c(C[C@H](N)C(=O)O)c[nH]c12; C20 diacid = O=C(O)CCCCCCCCCCCCCCCCCCC(=O)*; C18 diacid = O=C(O)CCCCCCCCCCCCCCCCC(=O)*; γGlu = O=C(O)[C@H](CCC(=O)[*:2])N[*:1]; 2Nal = N[C@@H](Cc1ccc2ccccc2c1)C(=O)O; AEF = NCCOc1ccc(C[C@H](N)C(=O)O)cc1; Palmitoyl = CCCCCCCCCCCCCCCC(=O)*; 3Pal = N[C@@H](Cc1cccnc1)C(=O)O; Pen = CC(C)(S)[C@H](N)C(=O)O; Thp = NC1(C(=O)O)CCOCC1; AEEA = NCCOCCOCC(=O)O; Sar = CNCC(=O)O

Molecular target: T1, IL-23R (Homo sapiens, UniProt Q5VWK5)
T1 construct: HEK293 cells containing IL-23R, IL-12RP31 and a firefly luciferase reporter gene driven by a STAT-inducible promoter (Promega); host or cells: HEK293
T1 sequence (Q5VWK5 24-629): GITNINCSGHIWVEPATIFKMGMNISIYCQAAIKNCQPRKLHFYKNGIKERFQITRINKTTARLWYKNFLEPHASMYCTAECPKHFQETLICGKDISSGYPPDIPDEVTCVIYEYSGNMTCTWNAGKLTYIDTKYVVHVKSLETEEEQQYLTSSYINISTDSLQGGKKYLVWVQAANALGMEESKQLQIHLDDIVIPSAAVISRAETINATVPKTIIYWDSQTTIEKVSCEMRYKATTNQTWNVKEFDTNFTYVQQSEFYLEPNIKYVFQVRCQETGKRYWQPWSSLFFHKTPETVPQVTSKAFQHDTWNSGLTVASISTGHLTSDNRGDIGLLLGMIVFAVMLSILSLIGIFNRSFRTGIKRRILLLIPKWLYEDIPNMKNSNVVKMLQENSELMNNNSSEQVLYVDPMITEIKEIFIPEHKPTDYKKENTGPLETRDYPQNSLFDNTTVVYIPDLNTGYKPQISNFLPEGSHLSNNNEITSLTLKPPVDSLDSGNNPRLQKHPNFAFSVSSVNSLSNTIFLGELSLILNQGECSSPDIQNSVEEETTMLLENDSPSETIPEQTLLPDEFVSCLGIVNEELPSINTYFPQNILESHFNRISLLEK
Test: IL23R Reporter Assay
Assay type: cell-based
Method in brief: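 Reporter cells read out IL-23-driven STAT3 activation; compounds were serially diluted in DMSO. After 5 h at 37 °C, 5% CO2, cells were brought to 20 °C and luminescence was measured with BioGlo reagent.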

Row | Structure (SMILES) | IC50 [pM]
1 | CCCCCCCCCCCCCCCC(=O)N[C@@H](CCC(=O)NCCOCCOCC(=O)NCCOCCOCC(=O)NCCCC[C@@H]1NC(=O)[C@@H](NC(C)=O)C(C)(C)SSC(C)(C)[C@@H](C(=O)N[C@@H](Cc2ccc(OCCN)cc2)C(=O)N[C@@H](Cc2ccc3ccccc3c2)C(=O)NC2(C(=O)N[C@@H](CCCCNC(C)=O)C(=O)N[C@@H](CC(N)=O)C(=O)N[C@@H](Cc3cccnc3)C(=O)N(C)CC(N)=O)CCOCC2)NC(=O)[C@H](CCCCNC(C)=O)NC(=O)[C@H](Cc2c[nH]c3c(C)cccc23)NC(=O)[C@H]([C@@H](C)O)NC1=O)C(=O)O [Example 83, MeCO-Pen*-K(PEG2PEG2gEC16)-T-7MeW-K(Ac)-Pen*-AEF-2Nal-THP-K(Ac)-N-3Pya-Sar-CONH2] (Ac-[Pen]K([AEEA-AEEA-γGlu-Palmitoyl])T[Trp(7-Me)]K(Ac)[Pen][AEF][2Nal][Thp]K(Ac)N[3Pal][Sar]-NH2; disulfide 1-6) | 52
2 | CC(=O)NCCCC[C@@H]1NC(=O)[C@H](Cc2c[nH]c3c(C)cccc23)NC(=O)[C@H]([C@@H](C)O)NC(=O)[C@H](CC(N)=O)NC(=O)[C@@H](NC(C)=O)C(C)(C)SSC(C)(C)[C@@H](C(=O)N[C@@H](Cc2ccc(OCCN)cc2)C(=O)N[C@@H](Cc2ccc3ccccc3c2)C(=O)NC2(C(=O)N[C@@H](CCCCNC(=O)CC[C@H](NC(=O)CCCCCCCCCCCCCCCCCCC(=O)O)C(=O)O)C(=O)N[C@@H](CC(N)=O)C(=O)N[C@@H](Cc3cccnc3)C(=O)N(C)CC(N)=O)CCOCC2)NC1=O [Example 89, MeCO-Pen*-N-T-7MeW-K(Ac)-Pen*-AEF-2Nal-THP-K(gEC20OH)-N-3Pya-Sar-CONH2] (Ac-[Pen]NT[Trp(7-Me)]K(Ac)[Pen][AEF][2Nal][Thp]K([γGlu-C20 diacid])N[3Pal][Sar]-NH2; disulfide 1-6) | 340
3 | CC(=O)NCCCC[C@@H]1NC(=O)[C@H](Cc2c[nH]c3c(C)cccc23)NC(=O)[C@H]([C@@H](C)O)NC(=O)[C@H](CCCCNC(=O)COCCOCCNC(=O)COCCOCCNC(=O)[C@H]2CCCN2C(=O)CC[C@H](NC(=O)CCCCCCCCCCCCCCCCC(=O)O)C(=O)O)NC(=O)[C@@H](NC(=O)[C@@H](CCCNC(=N)N)NC(C)=O)C(C)(C)SSC(C)(C)[C@@H](C(=O)N[C@@H](Cc2ccc(OCCN)cc2)C(=O)N[C@@H](Cc2ccc3ccccc3c2)C(=O)NC2(C(=O)N[C@@H](CCCCNC(C)=O)C(=O)N[C@@H](CC(N)=O)C(=O)N[C@@H](Cc3cccnc3)C(=O)N(C)CC(N)=O)CCOCC2)NC1=O [Example 96, MeCO-r-Pen*-K(PEG2PEG2pgEC18OH)-T-7MeW-K(Ac)-Pen*-AEF-2Nal-THP-K(Ac)-N-3Pya-Sar-CONH2] (Ac-[dR][Pen]K([AEEA-AEEA-dP-γGlu-C18 diacid])T[Trp(7-Me)]K(Ac)[Pen][AEF][2Nal][Thp]K(Ac)N[3Pal][Sar]-NH2; disulfide 2-7) | 130
4 | CC(=O)NCCCC[C@@H]1NC(=O)[C@H](Cc2c[nH]c3c(C)cccc23)NC(=O)[C@H]([C@@H](C)O)NC(=O)[C@H](CC(N)=O)NC(=O)[C@@H](NC(C)=O)C(C)(C)SSC(C)(C)[C@@H](C(=O)N[C@@H](Cc2ccc(OCCN)cc2)C(=O)N[C@@H](Cc2ccc3ccccc3c2)C(=O)NC2(C(=O)N[C@@H](CCCCNC(=O)COCCOCCNC(=O)COCCOCCNC(=O)CC[C@H](NC(=O)CCCCCCCCCOc3cccc(C(=O)O)c3)C(=O)O)C(=O)N[C@@H](CC(N)=O)C(=O)N[C@@H](Cc3cccnc3)C(=O)N(C)CC(N)=O)CCOCC2)NC1=O [Example 97, MeCO-Pen*-N-T-7MeW-K(Ac)-Pen*-AEF-2Nal-THP-K(PEG2PEG2gEmXOH)-N-3Pya-Sar-CONH2] (Ac-[Pen]NT[Trp(7-Me)]K(Ac)[Pen][AEF][2Nal][Thp]K([AEEA-AEEA-γGlu-Decanoyl(10-O(3-COOH-Ph))])N[3Pal][Sar]-NH2; disulfide 1-6) | 8.2
5 | CC(=O)NCCCC[C@@H]1NC(=O)[C@H](Cc2c[nH]c3c(C)cccc23)NC(=O)[C@H]([C@@H](C)O)NC(=O)[C@H](CC(N)=O)NC(=O)[C@@H](NC(C)=O)C(C)(C)SSC(C)(C)[C@@H](C(=O)N[C@@H](Cc2ccc(OCCN)cc2)C(=O)N[C@@H](Cc2ccc3ccccc3c2)C(=O)NC2(C(=O)N[C@@H](CCCCNC(=O)COCCOCCNC(=O)COCCOCCNC(=O)[C@@H]3CCCN3C(=O)CC[C@H](NC(=O)CCCCCCCCCCCCCCCCC(=O)O)C(=O)O)C(=O)N[C@@H](CC(N)=O)C(=O)N[C@@H](Cc3cccnc3)C(=O)N(C)CC(N)=O)CCOCC2)NC1=O [Example 105, MeCO-Pen*-N-T-7MeW-K(Ac)-Pen*-AEF-2Nal-THP-K(PEG2PEG2PgEC18OH)-N-3Pya-Sar-CONH2] (Ac-[Pen]NT[Trp(7-Me)]K(Ac)[Pen][AEF][2Nal][Thp]K([AEEA-AEEA-Pro-γGlu-C18 diacid])N[3Pal][Sar]-NH2; disulfide 1-6) | 89

Further lines, results first:

Row | IC50 [pM] | Structure (SMILES)
6 | 200 | CC(=O)NCCCC[C@H](NC(=O)C1(NC(=O)[C@H](Cc2ccc3ccccc3c2)NC(=O)[C@H](Cc2ccc(OCCN)cc2)NC(=O)[C@H]2NC(=O)[C@H](CCCCNC(=O)COCCOCCNC(=O)COCCOCCNC(=O)CC[C@H](NC(=O)CCCCCCCCCCCCCCCCC(=O)O)C(=O)O)NC(=O)[C@H](Cc3c[nH]c4c(C)cccc34)NC(=O)[C@H]([C@@H](C)O)NC(=O)[C@H](CC(N)=O)NC(=O)[C@@H](NC(=O)[C@@H](CCCNC(=N)N)NC(C)=O)C(C)(C)SSC2(C)C)CCOCC1)C(=O)N[C@@H](CC(N)=O)C(=O)N[C@@H](Cc1cccnc1)C(=O)N(C)CC(N)=O [Example 88, MeCO-r-Pen*-N-T-7MeW-K(PEG2PEG2gEC18OH)-Pen*-AEF-2Nal-THP-K(Ac)-N-3Pya-Sar-CONH2] (Ac-[dR][Pen]NT[Trp(7-Me)]K([AEEA-AEEA-γGlu-C18 diacid])[Pen][AEF][2Nal][Thp]K(Ac)N[3Pal][Sar]-NH2; disulfide 2-7)
7 | 140 | CC(=O)NCCCC[C@@H]1NC(=O)[C@H](Cc2c[nH]c3c(C)cccc23)NC(=O)[C@H]([C@@H](C)O)NC(=O)[C@H](CCCCNC(=O)COCCOCCNC(=O)COCCOCCNC(=O)[C@@H]2CCCN2C(=O)CC[C@H](NC(=O)CCCCCCCCCCCCCCCCC(=O)O)C(=O)O)NC(=O)[C@@H](NC(=O)[C@@H](CCCNC(=N)N)NC(C)=O)C(C)(C)SSC(C)(C)[C@@H](C(=O)N[C@@H](Cc2ccc(OCCN)cc2)C(=O)N[C@@H](Cc2ccc3ccccc3c2)C(=O)NC2(C(=O)N[C@@H](CCCCNC(C)=O)C(=O)N[C@@H](CC(N)=O)C(=O)N[C@@H](Cc3cccnc3)C(=O)N(C)CC(N)=O)CCOCC2)NC1=O [Example 95, MeCO-r-Pen*-K(PEG2PEG2PgEC18OH)-T-7MeW-K(Ac)-Pen*-AEF-2Nal-THP-K(Ac)-N-3Pya-Sar-CONH2] (Ac-[dR][Pen]K([AEEA-AEEA-Pro-γGlu-C18 diacid])T[Trp(7-Me)]K(Ac)[Pen][AEF][2Nal][Thp]K(Ac)N[3Pal][Sar]-NH2; disulfide 2-7)
8 | 96 | CC(=O)NCCCC[C@@H]1NC(=O)[C@H](Cc2c[nH]c3c(C)cccc23)NC(=O)[C@H]([C@@H](C)O)NC(=O)[C@H](CCCCNC(=O)COCCOCCNC(=O)COCCOCCNC(=O)[C@@H]2CCCN2C(=O)[C@@H]2CCCN2C(=O)[C@@H]2CCCN2C(=O)CC[C@H](NC(=O)CCCCCCCCCCCCCCCCC(=O)O)C(=O)O)NC(=O)[C@@H](NC(=O)[C@@H](CCCNC(=N)N)NC(C)=O)C(C)(C)SSC(C)(C)[C@@H](C(=O)N[C@@H](Cc2ccc(OCCN)cc2)C(=O)N[C@@H](Cc2ccc3ccccc3c2)C(=O)NC2(C(=O)N[C@@H](CCCCNC(C)=O)C(=O)N[C@@H](CC(N)=O)C(=O)N[C@@H](Cc3cccnc3)C(=O)N(C)CC(N)=O)CCOCC2)NC1=O [Example 99, MeCO-r-Pen*-K(PEG2PEG2PPPgEC18OH)-T-7MeW-K(Ac)-Pen*-AEF-2Nal-THP-K(Ac)-N-3Pya-Sar-CONH2] (Ac-[dR][Pen]K([AEEA-AEEA-Pro-Pro-Pro-γGlu-C18 diacid])T[Trp(7-Me)]K(Ac)[Pen][AEF][2Nal][Thp]K(Ac)N[3Pal][Sar]-NH2; disulfide 2-7)
9 | 90 | CC(=O)NCCCC[C@@H]1NC(=O)[C@H](Cc2c[nH]c3c(C)cccc23)NC(=O)[C@H]([C@@H](C)O)NC(=O)[C@H](CC(N)=O)NC(=O)[C@@H](NC(C)=O)C(C)(C)SSC(C)(C)[C@@H](C(=O)N[C@@H](Cc2ccc(OCCN)cc2)C(=O)N[C@@H](Cc2ccc3ccccc3c2)C(=O)NC2(C(=O)N[C@@H](CCCCNC(=O)COCCOCCNC(=O)COCCOCCNC(=O)[C@@H]3CCCN3C(=O)[C@@H]3CCCN3C(=O)[C@@H]3CCCN3C(=O)CC[C@H](NC(=O)CCCCCCCCCCCCCCCCC(=O)O)C(=O)O)C(=O)N[C@@H](CC(N)=O)C(=O)N[C@@H](Cc3cccnc3)C(=O)N(C)CC(N)=O)CCOCC2)NC1=O [Example 107, MeCO-Pen*-N-T-7MeW-K(Ac)-Pen*-AEF-2Nal-THP-K(PEG2PEG2PPPgEC18OH)-N-3Pya-Sar-CONH2]
10 | 150 | CC(=O)NCCCC[C@@H]1NC(=O)[C@H](Cc2c[nH]c3c(C)cccc23)NC(=O)[C@H]([C@@H](C)O)NC(=O)[C@H](CC(N)=O)NC(=O)[C@@H](NC(C)=O)C(C)(C)SSC(C)(C)[C@@H](C(=O)N[C@@H](Cc2ccc(OCCN)cc2)C(=O)N[C@@H](Cc2ccc3ccccc3c2)C(=O)NC2(C(=O)N[C@@H](CCCCNC(=O)COCCOCCNC(=O)COCCOCCNC(=O)[C@H]3CCCN3C(=O)[C@H]3CCCN3C(=O)[C@H]3CCCN3C(=O)CC[C@H](NC(=O)CCCCCCCCCCCCCCCCC(=O)O)C(=O)O)C(=O)N[C@@H](CC(N)=O)C(=O)N[C@@H](Cc3cccnc3)C(=O)N(C)CC(N)=O)CCOCC2)NC1=O [Example 108, MeCO-Pen*-N-T-7MeW-K(Ac)-Pen*-AEF-2Nal-THP-K(PEG2PEG2pppgEC18OH)-N-3Pya-Sar-CONH2]
